Patent US20050065140A1, “Serotonine reuptake inhibitor” (priority 2001, published 2005)

Assays:
[1] = biological target: T1, [^3H]paroxetine binding (serotonin reuptake), cerebral cortex membrane preparation (Rattus norvegicus, UniProt P31652); test: Screening test using [^3H]paroxetine binding (Test Example 1); conditions: [^3H]paroxetine 0.15 nM, test concentration not given
T1 construct: 790 μl of the cerebral cortex membrane preparation (150 μg/tube in terms of protein); from tissue; host or cells: rat cerebral cortex membrane preparation
Method: Screening Test Using [^3H]Paroxetine Binding
The membrane preparation was prepared according to the method^1a) of D'amato et al. In detail, after a male rat was decapitated, the whole brain was immediately removed and the cerebral cortex was dissected therefrom under ice-cooling. A buffer solution (50 mM Tris-HCl (pH=7.4), 120 mM NaCl, 5 mM KCl) was added to the cerebral cortex in an amount of 25 times the wet weight of the cerebral cortex, followed by homogenization in an ice bath by the use of a Teflon-glass homogenizer. The homogenate was centrifuged at 4° C. and 45,000×g for 10 minutes, and the resulting precipitate was dispersed in an ice-cooled buffer solution (50 mM Tris-HCl (pH=7.4), 120 mM NaCl, 5 mM KCl) by the use of Hiscotron™, followed by centrifugation at 4° C. and 45,000×g for 10 minutes. The resulting precipitate was re-suspended and the washing procedure was repeated. The membrane preparation thus obtained was suspended in the same buffer solution as described above, and then subjected to cryopreservation at −80° C.
[^3H]paroxetine binding was measured according to the method^1b) of Habert E et al. In detail, 200 μl of a dilution (final concentration: 0.15 nM) of [^3H]paroxetine with 50 mM Tris-HCl (pH=7.4) buffer containing 120 mM NaCl and 5 mM KCl, 790 μl of the cerebral cortex membrane preparation (150 μg/tube in terms of protein), 10 μl of a solution of a test drug in dimethyl sulfoxide and 1 ml of the above-mentioned buffer solution were mixed to prepare a liquid having a total volume of 2 ml. After this liquid was allowed to react at room temperature for 60 minutes, it was immediately filtered by suction at a low pressure through glass fiber filter. The glass fiber filter was washed 4 times with 4 ml of the same buffer solution as above and then transferred to a glass vial containing 4 ml of ACS-II (Amersham), and the radioactivity remaining on the filter was measured with a liquid scintillation counter.
Non-specific binding of [^3H]paroxetine was defined as the amount of [^3H]paroxetine bound in the presence of 100 μM 5-HT.
(§1) Rate of binding inhibition was calculated by the following equation:
Rate of binding inhibition (%)=100−100×{[amount of [^3H]paroxetine bound in the presence of test substance]−[amount of [^3H]paroxetine bound in the presence of 100 μM 5-HT]/[amount of [^3H]paroxetine bound in the absence of test substance]−[amount of [^3H]paroxetine bound in the presence of 100 μM 5-HT]}

[2] = biological target: T2, serotonin 1A receptors ([^3H]8-OH-DPAT binding, hippocampus membrane preparation) (Rattus norvegicus, UniProt P19327); test: [^3H]8-OH-DPAT binding test (Test Example 2); conditions: [^3H]8-OH-DPAT 2 nM, test concentration not given
T2 construct: 146 μl of the hippocampus membrane preparation (80 μg/tube in terms of protein); from tissue; host or cells: rat hippocampus membrane preparation
T2 sequence (P19327 1-422): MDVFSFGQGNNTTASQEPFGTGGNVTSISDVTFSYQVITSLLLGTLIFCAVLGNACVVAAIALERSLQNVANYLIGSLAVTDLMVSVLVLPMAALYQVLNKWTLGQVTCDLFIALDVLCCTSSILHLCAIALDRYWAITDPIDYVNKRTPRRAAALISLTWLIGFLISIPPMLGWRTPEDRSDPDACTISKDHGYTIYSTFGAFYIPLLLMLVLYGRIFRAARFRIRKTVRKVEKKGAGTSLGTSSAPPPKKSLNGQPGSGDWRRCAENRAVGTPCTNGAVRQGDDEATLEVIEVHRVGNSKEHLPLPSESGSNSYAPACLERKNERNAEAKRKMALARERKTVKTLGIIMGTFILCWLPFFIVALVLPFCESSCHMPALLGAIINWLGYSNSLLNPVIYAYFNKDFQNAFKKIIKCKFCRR
Method: [^3H]8-OH-DPAT Binding Test
The test was carried out according to the method^2 of Hall M. D. et al. After about one week of pre-breeding, a male rat was decapitated and the brain was immediately removed. The hippocampus was dissected from the brain on ice, and 50 mM Tris-HCl (pH=7.4) was added to the hippocampus in an amount of 40 times the wet weight of the hippocampus, followed by homogenization (3 min, 1 stroke/min) in an ice bath by the use of a Teflon-glass homogenizer. Then, the homogenate was centrifuged (4° C.) at 40,000×g for 10 minutes. The resulting precipitate was dispersed in an ice-cooled buffer solution (50 mM Tris-HCl (pH=7.4)) by the use of Hiscotron™, followed by centrifugation (4° C.) at 40,000×g for 10 minutes. Moreover, the resulting precipitate was re-suspended and the washing procedure was repeated once. The precipitate thus obtained was dispersed in an ice-cooled buffer solution (50 mM Tris-HCl (pH=7.4)) by the use of Hiscotron™, and the resulting dispersion was incubated at 37° C. for 1 hour and then centrifuged (4° C.) at 40,000×g for 10 minutes. Furthermore, the resulting precipitate was re-suspended and the washing procedure was repeated once. The membrane preparation thus obtained was suspended in the same buffer solution as described above, and then subjected to cryopreservation at −80° C.
Measurement was carried out by using a liquid for reaction (total volume: 200 μl) obtained by adding 50 μl of [^3H]8-OH-DPAT (final concentration: 2 nM), 4 μl of a solution of a test drug and 146 μl of the hippocampus membrane preparation (80 μg/tube in terms of protein) to a buffer solution containing 50 mM Tris-HCl (pH=7.4) and 4 mM CaCl2. After the liquid for reaction was allowed to react at room temperature for 30 minutes, it was immediately filtered by suction at a low pressure through glass fiber filter. The glass fiber filter was washed twice with 250 μl of a buffer solution and then added to a glass vial containing 4 ml of ACS-II (Amersham), and the radioactivity bound to receptors and remaining on the filter was measured with a liquid scintillation counter. Non-specific binding of [^3H]8-OH-DPAT was defined as the amount of [^3H]8-OH-DPAT bound in the presence of 1 μM 8-OH-DPAT.
as §1
Rate of binding inhibition (%)=100−100×{[amount of [^3H]8-OH-DPAT bound in the presence of test substance]−[amount of [^3H]8-OH-DPAT bound in the presence of 1 μM 8-OH-DPAT]/[amount of [^3H]8-OH-DPAT bound in the absence of test substance]−[amount of [^3H]8-OH-DPAT bound in the presence of 1 μM 8-OH-DPAT]}

T1 sequence (P31652 whole entry): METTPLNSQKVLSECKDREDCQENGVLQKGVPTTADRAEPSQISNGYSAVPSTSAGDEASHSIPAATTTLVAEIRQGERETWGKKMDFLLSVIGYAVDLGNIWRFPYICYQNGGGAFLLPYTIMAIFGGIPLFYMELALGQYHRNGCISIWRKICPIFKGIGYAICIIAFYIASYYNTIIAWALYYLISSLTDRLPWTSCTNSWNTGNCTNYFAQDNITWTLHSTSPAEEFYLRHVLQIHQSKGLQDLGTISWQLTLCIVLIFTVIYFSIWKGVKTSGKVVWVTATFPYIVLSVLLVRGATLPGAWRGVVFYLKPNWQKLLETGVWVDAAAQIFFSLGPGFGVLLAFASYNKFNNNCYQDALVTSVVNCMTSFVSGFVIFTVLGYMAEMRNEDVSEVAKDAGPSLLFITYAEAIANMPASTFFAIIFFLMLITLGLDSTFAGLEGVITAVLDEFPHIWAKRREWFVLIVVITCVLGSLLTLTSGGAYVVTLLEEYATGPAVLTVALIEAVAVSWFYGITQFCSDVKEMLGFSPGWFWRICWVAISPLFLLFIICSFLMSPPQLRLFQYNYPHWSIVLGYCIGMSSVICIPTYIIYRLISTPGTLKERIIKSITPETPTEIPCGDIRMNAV

SMILES | Rate of inhibition of [^3H]paroxetine binding (%) [1] [%] | Rate of inhibition of [^3H]8-OH-DPAT binding (%) [2] [%] | melting point [°C]
COc1ccc(Br)c(CC2CCN(CCC3CCN(CCO)CC3)CC2)c1.Cl.Cl [Example 6, 2-(4-(2-(4-(2-Bromo-5-methoxybenzyl)-1-piperidinyl)ethyl)-1-piperidinyl)ethanol Dihydrochloride] | 87 | 71 | 
CCN[C@H]1CC[C@H](CCN2CCC(Cc3cc(OC)ccc3Br)CC2)CC1.Cl.Cl [Example 38, trans-N-(4-(2-(4-(2-bromo-5-methoxybenzyl)-piperidin-1-yl)ethyl)cyclohexyl)-N-ethylamine Dihydrochloride] | 100 | 96 | 
CO[C@H]1CC[C@H](CCN2CCC(Cc3cc(OC(C)C)ccc3Br)CC2)CC1.Cl [Example 44, trans-4-(2-Bromo-5-isopropoxybenzyl)-1-(2-(4-methoxycyclohexyl)ethyl)piperidine Hydrochloride] | 99 | 92 | 196
CCN([C@H]1CC[C@H](CCCN2CCC(Cc3cc(OC(C)C)ccc3Br)CC2)CC1)S(C)(=O)=O.Cl [Example 46, trans-N-(4-(3-(4-(2-bromo-5-isopropoxy-benzyl)piperidin-1-yl)propyl)cyclohexyl)-N-ethylmethanesulfonamide Hydrochloride] | 100 | 65 | 
COc1ccc(Br)c(CC2CCN(CC[C@H]3CC[C@H](NS(=O)(=O)N(C)C)CC3)CC2)c1.Cl [Example 47, trans-N′-(4-(2-(4-(2-bromo-5-methoxybenzyl)-piperidin-1-yl)ethyl)cyclohexyl)-N,N-dimethylsulfamide hydrochloride] | 100 | 95 | 214
COc1ccc(Br)c(CC2CCN(CC[C@H]3CC[C@H](NC(=O)C(F)(F)F)CC3)CC2)c1.Cl [Example 48, trans-N-(4-(2-(4-(2-bromo-5-methoxybenzyl)-piperidin-1-yl)ethyl)cyclohexyl)-2,2,2-trifluoro-acetamide Hydrochloride] | 99 | 90 | 230
CCN(CC)[C@H]1CC[C@@H](CCCN2CCC(Cc3cc(OC)ccc3Br)CC2)CC1.Cl.Cl [Example 54, cis-N-(4-(3-(4-(2-bromo-5-methoxybenzyl)-piperidin-1-yl)propyl)cyclohexyl)-N,N-diethylamine Dihydrochloride] | 80 | 99 | 
CCN(CCOC)[C@H]1CC[C@H](CCN2CCC(Cc3cc(OC)ccc3Br)CC2)CC1.Cl.Cl [Example 58, trans-N-(4-(2-(4-(2-bromo-5-methoxybenzyl)-piperidin-1-yl)ethyl)cyclohexyl)-N-ethyl-N-(2-methoxyethyl)amine Dihydrochloride] | 100 | 92 | 78
COc1ccc(Br)c(CC2CCN(CC[C@H]3CC[C@@H](CCO)CC3)CC2)c1.Cl [Example 64, cis-2-(4-(2-(4-(2-Bromo-5-methoxybenzyl)-piperidin-1-yl)ethyl)cyclohexyl)ethanol Hydrochloride] | 96 | 96 | 273
CC(C)Oc1ccc(Br)c(CC2CCN(CC3CCc4ccccc4N3)CC2)c1.Cl.Cl (centres unmarked) [Example 65, 2-((4-(2-Bromo-5-isopropoxybenzyl)piperidin-1-yl)methyl)-1,2,3,4-tetrahydroquinoline Dihydrochloride] | 97 | 60 | 
Cl.Cl.Clc1ccc(Br)c(CC2CCN(CC3CCc4ccccc4N3)CC2)c1 (centres unmarked) [Example 67, 2-((4-(2-Bromo-5-chlorobenzyl)piperidin-1-yl)methyl)-1,2,3,4-tetrahydroquinoline Dihydrochloride] | 81 | 73 | 227
COc1ccc(Br)c(CC2CCN(CC3CCc4ccccc4N3)CC2)c1.Cl.Cl (centres unmarked) [Example 69, 2-((4-(2-Bromo-5-methoxybenzyl)piperidin-1-yl)methyl)-1,2,3,4-tetrahydroquinoline Dihydrochloride] | 95 | 96 | 
COc1ccc(Br)c(CC2CCN(CC3CNc4ccccc4C3)CC2)c1.Cl.Cl (centres unmarked) [Example 70, 3-((4-(2-Bromo-5-methoxybenzyl)piperidin-1-yl)methyl)-1,2,3,4-tetrahydroquinoline Dihydrochloride] | 84 | 86 | 
